Calls of active or inactive are those of the source. How the calls were made is not given here.
Test: SRC3 coactivator transcriptional activity inhibitors, dose response, counter-screen for SRC1 inhibitor project, cell-based, luminescence (AID 602234);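 further: HEK293 cells co-transfected with pGL4.31 reporter and pBIND-SRC3 fusion vector; potency for inhibition of reporter luminescence with Gossypol as full inhibition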
Settings: transfected HEK293 cells, counter-screen luciferase reporter

SMILES | IC50
COc1ccc(Oc2nc3c(c(=O)n(C)c(=O)n3C)n2C)cc1 | 7.76 µM
CCc1ccc(-c2nc(CSCC(=O)NCc3ccco3)c(C)o2)cc1 | 6.43 µM
Cc1c(C(=O)N/N=C/C(C)C)[nH]c2ccc([N+](=O)[O-])cc12 | 17 µM (inactive)
CC(C)(C)NC(=O)C1(C)CCC(=O)N1CCCn1ccnc1 (stereo unspecified) | 4.51 µM
Cc1cc(=O)[nH]c(Nc2cccc(Br)c2)n1 | 6.81 µM
COc1ccc(CNc2ncc(-c3ccc(F)cc3)n2C)c2ccccc12 | 11.6 µM (inactive)
S=C(Nc1ccccc1)Nc1ccc(OCc2ccc(Cl)cc2Cl)cc1 | 1.39 µM
O=C(N/N=C/c1ccc(O)cc1O)/C(=C/c1ccccc1)CCO | 5.37 µM
CC1(C)Cc2c(ccc3ccccc23)C(=O)N1 | 3.21 µM
CC1CCN(C(=O)c2scc3c2OCCO3)CC1 | 10 µM (inactive)
c1ccc(-c2nnc(-c3ccccn3)nc2NC2CCCCC2)cc1 | 2.89 µM
CCc1c(C)nc2c(C)cccc2c1SCCC#N | 13.6 µM (inactive)
O=C1CCC2S/C(=C/Nc3ccc(C(F)(F)F)cc3)C(=O)N12 (stereo unspecified) | 7.25 µM
O=C(CCn1cnc(-c2ccccc2)c1-c1ccccc1)N/N=C/c1ccccc1O | 12.2 µM (inactive)
O=C(CCC(=O)Nc1ccc(Br)cc1)N/N=C/c1ccccc1O | 4.33 µM
CNc1cccnc1C=NNC(N)=S | 0.522 µM
COC(=O)c1cccc2c1-c1ccccc1/C2=N/O | 2.57 µM
C=CCc1ccccc1OCC(=O)N/N=C/c1ccc(OC(C)=O)cc1OC(C)=O | 22.4 µM (inactive)
CN(C)C(=O)c1ccc(-c2n[nH]c(=O)c3ccccc23)cc1 | 5.67 µM
c1cc2c(cn1)cnc1cscc12 | 4.51 µM
O=C(N/N=C/c1coc2ccc(Cl)cc2c1=O)c1ccc(O)cc1 | 3.61 µM
C=CCn1c(O)c(C(C)=NCc2cc(OC)cc(OC)c2)c(=O)[nH]c1=O | 1.02 µM
CCCS(=O)(=O)c1c(S(=O)(=O)CCC)c2c(C)cccn2c1C(=O)N/N=C/c1cc(O)cc(O)c1 | 10.2 µM (inactive)

SMILES | IC50
Cc1cccc(C)c1-c1ccc(CN2C(CC(C)C)C(=O)N(Cc3cn(CC4CCCCC4)nn3)CCS2(=O)=O)cc1 (stereo unspecified) | 8.2 µM
CCC(=O)c1ccc(Oc2nc3c(c(=O)n(C)c(=O)n3C)n2CC)cc1 | 2.87 µM
CCCCCCCC[n+]1c(C)n(-c2ccccc2)c2ccc(NC(C)=O)cc21 | 4.36 µM
CC(C)n1c(-c2cccnc2)nc2cnccc21 | 5.26 µM
COc1ccc(-c2cc(=O)oc3c(C)c(O)c(CN(C)C)cc23)cc1 | 12.1 µM (inactive)
COc1ccc(-n2cnc3c(sc4nccc(N(C)C)c43)c2=O)cc1 | 11 µM (inactive)
CC(=O)c1cc2c(C)cc(=O)oc2cc1O | 11.2 µM (inactive)
c1ccc(-c2csc3ncnc(NCCN4CCOCC4)c23)cc1 | 8.04 µM
c1cc2[nH]snc2c2nc(C3CC3)nc12 | 1.2 µM
Cc1noc(/C=C/c2ccco2)c1S(=O)(=O)N1CCC(C(=O)Nc2ccc(Cl)cn2)CC1 | 11.3 µM (inactive)
Cc1ccc(OCC(=O)c2cc(C)n(-c3ccccc3)c2C)c([N+](=O)[O-])n1 | 2.46 µM
COc1ccc(-c2cnc(N)nc2-c2ccc(OC)cc2O)cc1 | 7.07 µM
NS(=O)(=O)c1ccc(Nc2nc(-c3cccnc3)cs2)cc1 | 6.23 µM
Nc1ccn([C@@H]2O[C@H](CO)[C@@H](O)C2O)c(=O)n1 (stereo partly specified) | 7.53 µM
OCCN1CCN(C(=S)c2ccc(-c3ccccc3)cc2)CC1 | 1.28 µM
COc1ccc2c(C#N)c3ccccn3c2c1 | 11.2 µM (inactive)
COc1cc(C(=O)NC(=S)NNC(=O)c2cnccn2)cc(OC)c1OC | 3.58 µM
O=C(CCl)N1N=C(c2ccco2)CC1c1ccco1 (stereo unspecified) | 0.762 µM
COc1ccc(NC(=O)CN(C)C(=O)C2(c3ccccc3)CCCC2)cc1 | 5.39 µM
O=C(CCCc1nc(-c2ccccc2Cl)no1)NC1CCCC1 | 3.59 µM
Cc1ccc(/C=C2/SC(=S)N(CCCC(=O)Nc3ccc(O)cc3)C2=O)cc1 | 3.23 µM
CCOC(=O)CC(=O)CSc1nccc(-c2cccnc2)n1 | 18.4 µM (inactive)
CC(=O)C1=C(C)NC2=C(C(=O)CC(C)(C)C2)C1C (stereo unspecified) | 7.94 µM

SMILES | IC50
NNC(=O)c1cc2ccccc2cc1O | 1.57 µM
CC(=O)N1CCN(c2ccc(Oc3ncnc4sccc34)cc2)CC1 | 4.79 µM
CCCc1cc(C(=O)N(C)CC(=O)Nc2ccc(OCC)c(OCC)c2)sc1C | > 35.9 µM (inactive)
COc1ccc(OC)c(/C=C2\NC(=O)NC2=O)c1 | 5.99 µM
CCOc1ccc(/C=C2\SC(=S)N(CCC(=O)O)C2=O)cc1 | 2.12 µM
Cc1sc2ncnc(N3CCC(C(=O)Nc4cc(S(C)(=O)=O)ccc4Cl)CC3)c2c1C | 10.1 µM (inactive)
COc1cc(OC)c2cc(C(=O)N/N=C/c3cccc(OC)c3O)[nH]c2c1 | 3.56 µM
COc1ccccc1NS(=O)(=O)c1cccc(NC(=O)c2cncc(Br)c2)c1 | 7.71 µM
Nc1ccc(-c2cc3ccccc3oc2=O)cc1 | 3.62 µM
CCOc1cccc(/C=N/NC(=O)c2cc(C3CC3)[nH]n2)c1O | 14.8 µM (inactive)
Cn1nc(C(F)(F)F)c(C#N)c1N1CCN(c2ccccc2)CC1 | 4.13 µM
CC1CC(C)C(=NNC(N)=O)C(C(O)CC2CCC(=O)NC2=O)C1 (stereo unspecified) | 7.99 µM
O=C(NC(NC(=S)N1CCOCC1)C(Cl)(Cl)Cl)c1ccc(Cl)cc1 (stereo unspecified) | 3.94 µM
COc1cccc(/C=N/NC(=O)C(=O)Nc2ccccc2OC(F)(F)C(F)F)c1O | 5.65 µM
CC(=O)c1cccc(NC(=O)COc2cc3oc(=O)c(CC(C)O)c(C)c3cc2Cl)c1 (stereo unspecified) | 6.25 µM
O=C(Nc1c(-c2ccccc2)[nH][nH]c1=O)c1cccc(C(F)(F)F)c1 | > 35.8 µM (inactive)
O=[N+]([O-])c1ccc(N(CCO)CCO)c2c1no[n+]2[O-] | 6.44 µM
O=C1c2cccc(OCc3ccc(F)cc3)c2CCN1Cc1ccccc1 | 4.15 µM
O=C(O)c1ccccc1C(=O)Nc1ccc(Oc2cccc3ccccc23)cc1 | > 35.9 µM (inactive)
O=C1CCC/C1=c1\s/c(=C/c2cccnc2)c(=O)n1-c1ccccc1 | 6.2 µM
CCOC(=O)CSc1cc(-c2ccccc2)nc2ncnn12 | > 35.9 µM (inactive)
Cn1nc(C(F)(F)F)c(C#N)c1N1CCN(c2ccc(F)cc2)CC1 | 2.13 µM
NC(=S)NN=Cc1nccc2ccccc12 | 0.434 µM

SMILES | IC50
COc1cc2c(cc1OC)C(C)N(C(=O)c1cccc([N+](=O)[O-])c1)CC2 (stereo unspecified) | 7.27 µM
Cc1nc2c(-c3ccc(Cl)cc3)c(C)[nH]n2c(=O)c1Cc1ccccc1 | 4.49 µM
O=C(N/N=C/c1ccccc1O)/C(=C/c1ccccc1)CCO | 5.52 µM
O=C(c1ccncc1)N(Cc1cc2ccccc2[nH]c1=O)C1CCCCC1 | 5.34 µM
CN1CCN(c2cccc3c2C(=O)c2ccccc2C3=O)CC1 | > 35.9 µM (inactive)
Nc1nc(CCl)nc(Nc2cccc3ccccc23)n1 | 3.61 µM
COc1ccc(Nc2ncnc3ccc(C)cc23)cc1 | 2.62 µM
COc1ccc2c(=O)cc(-c3ccncc3)oc2c1OC | 3.16 µM
CNc1ncnc(Sc2nc(N)nc3nc[nH]c23)c1[N+](=O)[O-] | 2.81 µM
COc1ccc(C(O)(C(C)C)C(CN2CCOCC2)c2ccc(Cl)cc2)cc1 (stereo unspecified) | 13.4 µM (inactive)
O=C(Nc1cccc2c1CCCC2)c1cc([N+](=O)[O-])ccc1Cl | 3.47 µM
Cc1ccc(NC(=O)NC2CC(=O)N(c3ccc4c(c3)OCCO4)C2)cc1C (stereo unspecified) | 1.08 µM
Cc1nc2c(-c3ccc(F)cc3)cnn2c(N)c1-c1ccccc1 | 11.4 µM (inactive)
CCCCN(CCCC)c1ncnc2nc[nH]c12 | 2.14 µM
O=C(Nc1nc(-c2ccccn2)cs1)c1cccc(S(=O)(=O)N2CCOCC2)c1 | > 12 µM (inactive)
COc1ccc2[nH]c(=O)c(CN(CCN3CCCC3)C(=O)Nc3ccccc3Cl)cc2c1 | 8.7 µM
O=C(NC(=S)Nc1ccc(N2CCN(C(=O)c3ccccc3)CC2)cc1)c1cccs1 | 7.01 µM
COc1cc(C(=O)N/N=C(\c2ccccc2)c2ccccn2)cc(OC)c1OC | 9.58 µM
COc1cc([C@@H]2c3cc4c(cc3[C@@H](O[C@@H]3O[C@@H]5CO[C@@H](C)O[C@H]5[C@H](O)[C@H]3O)[C@H]3COC(=O)[C@H]23)OCO4)cc(OC)c1O | 0.375 µM
O=C(Nc1ccncc1)c1ccccc1[N+](=O)[O-] | 4.77 µM
Cc1ccc(O)c(Nc2ncnc3ccc([N+](=O)[O-])cc23)c1 | 3.59 µM
CCOc1ccc(/C=C2\SC(=S)N(CCCC(=O)NCCCN3CCOCC3)C2=O)cc1 | 5.91 µM
O=C(OC(c1ccccc1)c1nccc2ccccc12)c1ccccc1 (stereo unspecified) | 0.661 µM

SMILES | IC50
Nc1ccc(Oc2ccccc2-c2ccccc2)cc1 | 7.34 µM
Cc1ccc(N=c2c([N+](=O)[O-])nn(-c3ccc4c(c3)OCCO4)n2O)cc1F | 3.24 µM
CCc1nc(N)nc(N)c1-c1ccc(Cl)c([N+](=O)[O-])c1 | 0.95 µM
CCCCCOc1ccc(/C=C/c2c([N+](=O)[O-])c(=O)n(C)c(=O)n2C)cc1 | 4.32 µM
Cc1c(CC(=O)NCCCC(=O)O)c(=O)oc2cc3c(cc12)CCC(C)(C)O3 | 3.86 µM
Cc1nn(C(C)(C)C)c(C)c1/C=N/OC(=O)Nc1ccc(Cl)c(Cl)c1 | 2.09 µM
Cc1ccc2nc(C(F)(F)F)c(C#N)c(N)c2c1 | 5.13 µM
COC(=O)c1sc2cnccc2c1N | 8.34 µM
O=C(Nc1cccc(Cl)c1)Nc1nnc(-c2ccncc2)s1 | 3.62 µM
Cc1ccc(S(=O)(=O)N2[C@@H](c3ccc(C(C)(C)C)cc3)C(C(=O)O)=CC[C@H]2c2ccc(Cl)cc2)cc1 | 10.4 µM (inactive)
CCN(C(=O)c1cccc(S(=O)(=O)N(C)C)c1)C12CC3CC(CC(C3)C1)C2 | 13.8 µM (inactive)
CCN(Cc1ccncc1)C(=O)CC1C(=O)NCCN1Cc1ccc(F)c(F)c1 (stereo unspecified) | 4.94 µM
COc1ccccc1/C=C\C(=O)NCC(=O)N/N=C/c1cccc(OC)c1O | 12.9 µM (inactive)
O=C(O)CN1C(=O)/C(=C\c2ccccc2OCc2ccc(Cl)cc2Cl)SC1=S | 11 µM (inactive)
Nc1ncccc1C(=O)OCC(=O)N1CCN(S(=O)(=O)c2ccc(Cl)cc2)CC1 | 8.27 µM
O=[N+]([O-])c1ccc2c(c1)-c1ccccc1C2=NO | 3.34 µM
CCN1CCN(C(=S)c2ccc(-c3ccccc3)cc2)CC1 | 4.62 µM
OCCN(CCO)CC(O)COc1ccc(C23CC4CC(CC(C4)C2)C3)cc1 (stereo unspecified) | 12.1 µM (inactive)
COc1ccc(-n2cnc(N)c2C(=O)c2cccc([N+](=O)[O-])c2)cc1 | 3.87 µM
